System: T1, TanRd
T1 construct: recombinant secreted from Yarrowia lipolytica, codon-optimised, XPR2 signal peptide, His-tag; ORF 1719 bp, 572 aa, predicted native signal peptide 1-19
Assay: gallate ester hydrolysis, gallic acid release
Assay type: biochemical, Rhodotorula diobovata
Conditions: kinetic assay conditions not stated
Text: gallate ester hydrolysis, gallic acid release on TanRd

| Km | SMILES |
| --- | --- |
| 2310 µM | COC(=O)c1cc(O)c(O)c(O)c1 [MG, methyl gallate] |
| 1650 µM | O=C(O[C@@H]1Cc2c(O)cc(O)cc2O[C@@H]1c1ccc(O)c(O)c1)c1cc(O)c(O)c(O)c1 [ECG, epicatechin gallate] |
| 1490 µM | CCCOC(=O)c1cc(O)c(O)c(O)c1 [PG, propyl gallate] |
| 1670 µM | O=C(O[C@H]1Cc2c(O)cc(O)cc2O[C@@H]1c1ccc(O)c(O)c1)c1cc(O)c(O)c(O)c1 [CG, catechin gallate] |

| SMILES | Km |
| --- | --- |
| O=C(O[C@@H]1Cc2c(O)cc(O)cc2O[C@@H]1c1cc(O)c(O)c(O)c1)c1cc(O)c(O)c(O)c1 [EGCG, epigallocatechin gallate] | 2190 µM |
